Values joined by “and” are separate entries in the source; they are usually repeats but may differ in a detail not shown here. Identical values can stand only once. Toxic doses and inconclusive results are not listed. No stated cut-off is given here; in the data, active means T/C of 150% or more; inactive means T/C below 125%.
Test system: L1210 leukemia ip in BDF1 mice, survival T/C
Test: NCI In Vivo Anticancer Drug Screen. Data for tumor model L1210 Leukemia (intraperitoneal) in B6D2F1 (BDF1) mice
Details: endpoint: mean survival time, higher = longer survival
Summary of the method: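 In this screen, tumor-bearing mice given compound are compared to those given vehicle, and their survival values are reported as a treated-to-control quotient.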

[1] = dose: 3.12 mg/kg/injection, schedule: Q01DX009 (ip), vehicle: saline
[2] = dose: 6.25 mg/kg/injection, schedule: Q01DX009 (ip), vehicle: saline
[3] = dose: 12.5 mg/kg/injection, schedule: Q01DX009 (ip), vehicle: saline
[4] = dose: 12.5 mg/kg/injection, schedule: Q04DX003 (ip), vehicle: saline
[5] = dose: 25.0 mg/kg/injection, schedule: Q04DX003 (ip), vehicle: saline
[6] = dose: 25.0 mg/kg/injection, schedule: Q01DX009 (ip), vehicle: saline
[7] = dose: 100.0 mg/kg/injection, schedule: Q04DX002 (ip), vehicle: saline
[8] = dose: 100.0 mg/kg/injection, schedule: Q01DX009 (ip), vehicle: Klucel (hydroxypropylcellulose) (HPC)
[9] = dose: 100.0 mg/kg/injection, schedule: Q04DX003 (ip), vehicle: Klucel (hydroxypropylcellulose) (HPC)
[10] = dose: 200.0 mg/kg/injection, schedule: Q01DX009 (ip), vehicle: Klucel (hydroxypropylcellulose) (HPC)
[11] = dose: 200.0 mg/kg/injection, schedule: Q04DX003 (ip), vehicle: Klucel (hydroxypropylcellulose) (HPC)
[12] = dose: 400.0 mg/kg/injection, schedule: Q01DX009 (ip), vehicle: Klucel (hydroxypropylcellulose) (HPC)
[13] = dose: 400.0 mg/kg/injection, schedule: Q04DX003 (ip), vehicle: Klucel (hydroxypropylcellulose) (HPC)
[14] = dose: 100.0 mg/kg/injection, schedule: Q01DX001 (ip), vehicle: carboxymethylcellulose (CMC)
[15] = dose: 200.0 mg/kg/injection, schedule: Q01DX001 (ip), vehicle: carboxymethylcellulose (CMC)
[16] = dose: 400.0 mg/kg/injection, schedule: Q01DX001 (ip), vehicle: carboxymethylcellulose (CMC)
[17] = dose: 50.0 mg/kg/injection, schedule: Q01DX001 (ip), vehicle: saline
[18] = dose: 100.0 mg/kg/injection, schedule: Q01DX001 (ip), vehicle: saline

Measured: T/C

O=C(CBr)Nc1nccs1
inactive: [1] 98 % of control | [2] 93 % of control | [3] 104 % of control | [4] 98 % of control | [5] 94 % of control

COC1C2CCC1[N+](C)(C)CC2 (configuration not stated)
inactive: [6] 101 % of control | dose: 50.0 mg/kg/injection, schedule: Q01DX009 (ip), vehicle: saline 105 % of control | dose: 100.0 mg/kg/injection, schedule: Q01DX009 (ip), vehicle: saline 107 % of control and 110 % of control

O=[N+]([O-])c1cccc(C(O)C=C(C(F)(F)F)C(F)(F)F)c1 (configuration not stated)
inactive: dose: 25.0 mg/kg/injection, schedule: Q01DX009 (ip), vehicle: saline with Tween-80 100 % of control | dose: 50.0 mg/kg/injection, schedule: Q01DX009 (ip), vehicle: saline with Tween-80 98 % of control | dose: 100.0 mg/kg/injection, schedule: Q01DX009 (ip), vehicle: saline with Tween-80 98 % of control | dose: 100.0 mg/kg/injection, schedule: Q04DX003 (ip), vehicle: saline with Tween-80 103 % of control

C=CS(=O)(=O)CC
inactive: dose: 25.0 mg/kg/injection, schedule: Q04DX002 (ip), vehicle: saline 119 % of control | dose: 50.0 mg/kg/injection, schedule: Q04DX002 (ip), vehicle: saline 102 % of control | [7] 102 % of control

O=CNC(NC=O)c1ccccc1[N+](=O)[O-]
inactive: [8] 101 % of control | [9] 104 % of control | [10] 98 % of control | [11] 98 % of control | [12] 97 % of control | [13] 100 % of control

CCCCCCCCC(=O)N(CC)CC
inactive: [7] 111 % of control | dose: 200.0 mg/kg/injection, schedule: Q04DX002 (ip), vehicle: saline 103 % of control | dose: 400.0 mg/kg/injection, schedule: Q04DX002 (ip), vehicle: saline 96 % of control

Cc1cc(C)nc(NC(=O)Nc2ccccc2)c1
inactive: [8] 93 % of control | [9] 94 % of control | [11] 92 % of control | [12] 100 % of control | [13] 89 % of control

NC(=O)C1C(=O)c2cccc3c2C1CCCC3 (configuration not stated)
inactive: [14] 90 % of control | [15] 95 % of control | [16] 92 % of control

COc1cc(CNCc2cc(OC)c(OC)c(OC)c2)cc(OC)c1OC
inactive: [17] 102 % of control | [18] 102 % of control

OCCN1CCN(CC/C=C2\c3ccccc3Sc3ccc(Cl)cc32)CC1
inactive: dose: 0.39 mg/kg/injection, schedule: Q03HX024 (ip), vehicle: saline 100 % of control | dose: 0.78 mg/kg/injection, schedule: Q03HX024 (ip), vehicle: saline 94 % of control | dose: 1.0 mg/kg/injection, schedule: Q01DX009 (ip), vehicle: saline 101 % of control and 87 % of control | dose: 1.56 mg/kg/injection, schedule: Q03HX024 (ip), vehicle: saline 107 % of control | dose: 2.0 mg/kg/injection, schedule: Q01DX009 (ip), vehicle: saline 95 % of control and 103 % of control | [1] 104 % of control | dose: 3.12 mg/kg/injection, schedule: Q03HX024 (ip), vehicle: saline 111 % of control | dose: 3.12 mg/kg/injection, schedule: Q04DX003 (ip), vehicle: saline 106 % of control | dose: 4.0 mg/kg/injection, schedule: Q01DX009 (ip), vehicle: saline 100 % of control and 106 % of control | [2] 120 % of control | dose: 6.25 mg/kg/injection, schedule: Q04DX003 (ip), vehicle: saline 100 % of control and 105 % of control | dose: 8.0 mg/kg/injection, schedule: Q01DX009 (ip), vehicle: saline 106 % of control and 115 % of control | dose: 9.37 mg/kg/injection, schedule: Q01DX001 (ip), vehicle: saline 106 % of control | [3] 120 % of control and 86 % of control | [4] 108 % of control and 116 % of control | dose: 16.0 mg/kg/injection, schedule: Q01DX009 (ip), vehicle: saline 115 % of control and 89 % of control | dose: 18.75 mg/kg/injection, schedule: Q01DX001 (ip), vehicle: saline 100 % of control | dose: 20.0 mg/kg/injection, schedule: Q04DX003 (ip), vehicle: saline 115 % of control | [6] 124 % of control | [5] 119 % of control | dose: 37.5 mg/kg/injection, schedule: Q01DX001 (ip), vehicle: saline 105 % of control | dose: 40.0 mg/kg/injection, schedule: Q04DX003 (ip), vehicle: saline 105 % of control | dose: 75.0 mg/kg/injection, schedule: Q01DX001 (ip), vehicle: saline 105 % of control

CCOC(=O)CNC(=O)Cn1ccc(=O)[nH]c1=O
inactive: [17] 96 % of control | [18] 98 % of control | dose: 200.0 mg/kg/injection, schedule: Q01DX001 (ip), vehicle: saline 98 % of control

O=C(O)CC(Sc1ccccc1)C(=O)O (configuration not stated)
inactive: dose: 100.0 mg/kg/injection, schedule: Q04DX002 (ip), vehicle: saline + alcohol 99 % of control | dose: 200.0 mg/kg/injection, schedule: Q04DX002 (ip), vehicle: saline + alcohol 102 % of control | dose: 400.0 mg/kg/injection, schedule: Q04DX002 (ip), vehicle: saline + alcohol 99 % of control

Cc1ccc(NC2OC(CO)C(O)C(O)C2O)cc1 (configuration not stated)
inactive: dose: 75.0 mg/kg/injection, schedule: Q01DX001 (ip), vehicle: steriod suspending solution 99 % of control | dose: 150.0 mg/kg/injection, schedule: Q01DX001 (ip), vehicle: steriod suspending solution 94 % of control | dose: 300.0 mg/kg/injection, schedule: Q01DX001 (ip), vehicle: steriod suspending solution 94 % of control

Nc1ncnc2nc(N=Nc3ccc(S(=O)(=O)N(CCCl)CCCl)cc3)[nH]c12
inactive: dose: 50.0 mg/kg/injection, schedule: Q04DX003 (ip), vehicle: Klucel (hydroxypropylcellulose) (HPC) 93 % of control | [9] 88 % of control and 91 % of control | [11] 96 % of control

O=C1OC(c2ccc([N+](=O)[O-])cc2)=N/C1=C\c1ccc(Cl)c(Cl)c1
inactive: dose: 100.0 mg/kg/injection, schedule: Q04DX002 (ip), vehicle: Klucel (hydroxypropylcellulose) (HPC) 108 % of control | dose: 200.0 mg/kg/injection, schedule: Q04DX002 (ip), vehicle: Klucel (hydroxypropylcellulose) (HPC) 97 % of control | dose: 400.0 mg/kg/injection, schedule: Q04DX002 (ip), vehicle: Klucel (hydroxypropylcellulose) (HPC) 101 % of control

O=C(NCCCCc1ccccc1)c1ccccc1
inactive: [8] 102 % of control | [9] 95 % of control | [10] 109 % of control | [11] 105 % of control | [12] 106 % of control | [13] 95 % of control

Cc1ccccc1NC(=O)NCCc1ccccc1
inactive: [8] 93 % of control | [9] 88 % of control | [10] 91 % of control | [11] 93 % of control | [12] 98 % of control | [13] 90 % of control

C[C@]12CCC(=O)C=C1CC[C@H]1[C@@H]3CCC(=O)O[C@@]3(C)CC(=O)[C@@]12F
inactive: [14] 94 % of control | [15] 100 % of control | [16] 97 % of control
